Holding throughout (experiment): DTP human tumour cell line panel, 48 h
The subject of test [1] is 786-0.
The test system of test [2] is TK-10.
For test [3], the system named is K562.
Test [4] deals with Malme-3M.
The test system of test [5] is RXF 393.
Test [6] concerns SR.
The test system of test [7] is MCF7.
In test [8] the test system is HL-60.
In test [9] the test system is NCI-H226.
Test [10] relates to MOLT-4.
The test system of test [11] is DU-145.
For test [12], the system named is CAKI-1.
In test [13] the test system is OVCAR-5.
Test [14] has as its system OVCAR-4.
Test [15] has as its system UACC-62.
Test [16] relates to SK-MEL-5.
The test system of test [17] is SK-MEL-2.
For test [18], the system named is CCRF-CEM.
Test [19] deals with UACC-257.
Test [20] concerns RPMI-8226.

Results on 10 compounds are retold here after ChEMBL document CHEMBL1201862, “PubChem BioAssay data set” (2004).

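Protocol summary: plate cells (96-well), add compound at 5 concentrations, incubate 48 h, interpolate endpoints linearly. The concentration for 50% growth inhibition is given as GI50.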 Calls of active or inactive are those of the source. Rule as the data show it: active = GI50 up to about 1.1 µM and inactive = higher.

As usually defined, the GI50 is the concentration at which growth is held to half of that of the control.

Consider `Cc1ccc2c3c1O[C@H]1c4nc5ccccc5cc4C[C@@]4(O)[C@@H](C2)N(CC2CC2)CC[C@]314`, for which the GI50 in test [1] is 10.8 µM (inactive); in [2], 29.6 µM (inactive); in test [3] it was 3.31 µM (inactive); in [4], 14.5 µM (inactive); in [5] it was 8 µM (inactive); in test [6] it was 3.86 µM (inactive). The GI50 is 10.4 µM (inactive) in test [7]; 9.23 µM (inactive) in [8]; 10.6 µM (inactive) in test [9]; 2.5 µM (inactive) in test [10]; 14.1 µM (inactive) in test [11]; 13.2 µM (inactive) in test [12]. Also, the GI50 is 12.7 µM (inactive) in [13]; 13.4 µM (inactive) in test [14]; 9.82 µM (inactive) in test [15]; 7.18 µM (inactive) in [16]; 18.5 µM (inactive) in [17]; 1.39 µM (inactive) in test [18]. The GI50 is 24.7 µM (inactive) in [19] and 4.63 µM (inactive) in [20].

For the compound `CCCCOc1ccc(S(=O)(=O)/N=C(\NN)Nc2ccc(Cl)cc2)cc1`, the GI50 in test [1] is 17.1 µM (inactive); in test [2] it was 43.5 µM (inactive); in test [3], 31.7 µM (inactive); in [4], 26.9 µM (inactive); in [5] it was 16.7 µM (inactive); in test [6], 21.2 µM (inactive). In addition, the GI50 in [7] is 32.1 µM (inactive); in test [8], 31 µM (inactive); in test [9], 29.6 µM (inactive); in test [10] it was 23.3 µM (inactive); in test [11], 17.2 µM (inactive); in [12], 21.5 µM (inactive). Moreover, the GI50 in test [13] was 21 µM (inactive); in test [14], 19.1 µM (inactive); in test [15] it was > 100 µM (inactive); in [16] it was 35.9 µM (inactive); in test [17], > 100 µM (inactive); in test [18], 20 µM (inactive). Moreover, the GI50 in test [19] is 23.1 µM (inactive); in test [20] it was 30.1 µM (inactive).

For the compound `COc1cc(-c2cc(=O)c3cc4c(=O)cc(-c5cc(OC)c(OC)c(OC)c5)oc4cc3o2)cc(OC)c1OC`, the GI50 in test [1] is 14.3 µM (inactive); in test [2] it was 16.3 µM (inactive); in [3], > 41.9 µM (inactive); in [4], 43.2 µM (inactive); in [5], 7.98 µM (inactive); in test [6], > 100 µM (inactive). Moreover, the GI50 is > 100 µM (inactive) in [7]; > 100 µM (inactive) in [8]; 12.9 µM (inactive) in test [9]; > 88.7 µM (inactive) in test [10]; 35.7 µM (inactive) in [11]; 23.2 µM (inactive) in test [12]. Moreover, the GI50 in test [13] was > 100 µM (inactive); in test [14] it was > 82.8 µM (inactive); in [15], 13.9 µM (inactive); in [16], > 100 µM (inactive); in test [17] it was 16.7 µM (inactive); in test [18] it was > 100 µM (inactive). Moreover, the GI50 was > 83.6 µM (inactive) in [19] and > 100 µM (inactive) in test [20].

Consider `COc1ccc(/C=C/C(=O)Oc2ccc(/C=C3\CCCCC3=O)cc2)cc1`, for which the GI50 is > 100 µM (inactive) in test [1]; > 91.6 µM (inactive) in test [2]; > 100 µM (inactive) in test [3]; > 79.1 µM (inactive) in test [4]; > 100 µM (inactive) in [5]; > 100 µM (inactive) in [6]. For the same compound, the GI50 in test [7] was > 100 µM (inactive); in test [8], 12.6 µM (inactive); in [9], 25.3 µM (inactive); in [10] it was 2.51 µM (inactive); in test [11], > 100 µM (inactive); in [12], > 100 µM (inactive). Besides, the GI50 in test [13] was > 100 µM (inactive); in test [14] it was 43.2 µM (inactive); in [15], 2.96 µM (inactive); in [16], > 100 µM (inactive); in [17], > 100 µM (inactive); in [18], 1.93 µM (inactive). Also, the GI50 in [19] is > 67.8 µM (inactive); in test [20], 3.61 µM (inactive).

Turning to `O=C(CCSC1=NCCCN1)c1ccc(F)cc1`, the GI50 was 4.02 µM (inactive) in test [1]; 15.8 µM (inactive) in [2]; 3.13 µM (inactive) in [3]; 7.26 µM (inactive) in [4]; 17.2 µM (inactive) in [5]; 3.3 µM (inactive) in test [6]. Further, the GI50 in [7] was 4.41 µM (inactive); in test [8] it was 10.7 µM (inactive); in test [9], 17.4 µM (inactive); in test [10] it was 2.62 µM (inactive); in [11], 17.4 µM (inactive); in test [12], 17.2 µM (inactive). The GI50 in test [13] was 15 µM (inactive); in test [14], 21.6 µM (inactive); in test [15], 17.2 µM (inactive); in [16], 18.9 µM (inactive); in [17] it was 18.2 µM (inactive); in [18] it was 2.61 µM (inactive). The GI50 in [19] was 18.8 µM (inactive); in [20], 2.15 µM (inactive).

For `NN/C(=N\S(=O)(=O)c1cc2ccccc2o1)Nc1ccc(Cl)cc1`, the GI50 is 44 µM (inactive) in test [1]; 72.6 µM (inactive) in [2]; > 100 µM (inactive) in test [3]; > 100 µM (inactive) in test [4]; 20.7 µM (inactive) in test [5]; > 100 µM (inactive) in test [6]. The GI50 in [7], in test [8], in [9], in test [10], in test [11] and in [12] was > 100 µM (inactive) throughout. In addition, the GI50 in test [13] is > 100 µM (inactive); in [14], > 100 µM (inactive); in [15], > 100 µM (inactive); in [16], > 100 µM (inactive); in test [17], > 100 µM (inactive); in test [18], 2.02 µM (inactive). Moreover, the GI50 in [19] and in [20] was > 100 µM (inactive) in each case.

Take `O=C(/C=C/c1ccc([N+](=O)[O-])cc1)c1nc2ccccc2[nH]1`: the GI50 in test [1] is 27.4 µM (inactive); in [2], 3.57 µM (inactive); in test [3] it was 3.66 µM (inactive); in [4], > 100 µM (inactive); in test [5], 40.8 µM (inactive); in [6], 2.49 µM (inactive). Besides, the GI50 was 2.21 µM (inactive) in test [7]; 5.2 µM (inactive) in test [8]; 1.05 µM (active) in test [9]; 25.2 µM (inactive) in [10]; 97.3 µM (inactive) in test [11]; 4.23 µM (inactive) in test [12]. Further, the GI50 is 3.54 µM (inactive) in test [13]; > 66.1 µM (inactive) in [14]; 5.89 µM (inactive) in test [15]; 52.2 µM (inactive) in test [16]; > 77.8 µM (inactive) in test [17]; 20 µM (inactive) in [18]. Besides, the GI50 in [19] is 9.08 µM (inactive); in [20], 5.73 µM (inactive).

`CC(NC(=O)c1ccccc1)NC(=O)C(C)C(=O)Nc1ccccc1` (stereo not given): the GI50 in [1] is > 100 µM (inactive); in [2], 75.2 µM (inactive); in [3] it was > 100 µM (inactive); in [4] it was > 100 µM (inactive); in [5], 89.1 µM (inactive); in test [6] it was > 100 µM (inactive). The GI50 in [7] is > 100 µM (inactive); in test [8], > 100 µM (inactive); in [9], 89.5 µM (inactive); in [10], > 100 µM (inactive); in test [11], > 100 µM (inactive); in test [12], > 100 µM (inactive). The GI50 in [13], in test [14], in test [15], in [16], in test [17] and in [18] was > 100 µM (inactive) throughout. The GI50 in [19] and in test [20] was > 100 µM (inactive) each time.

`O=[N+]([O-])c1cccc2nc3ccccc3c(NCCO)c12`: the GI50 is 0.00315 µM (active) in test [1]; 0.00269 µM (active) in test [2]; 0.000237 µM (active) in test [3]; 0.00331 µM (active) in [4]; 0.00169 µM (active) in [5]; 2.36e-05 µM (active) in test [6]. Also, the GI50 in test [7] was 0.0021 µM (active); in [8] it was 0.00325 µM (active); in test [9], 0.00248 µM (active); in [10], 0.00407 µM (active); in [11], 0.0036 µM (active); in test [12] it was 0.00323 µM (active). Further, the GI50 is 0.00219 µM (active) in test [13]; 0.000719 µM (active) in test [14]; 0.00237 µM (active) in test [15]; 0.00286 µM (active) in [16]; 0.00502 µM (active) in test [17]; 0.00989 µM (active) in test [18]. Further, the GI50 in test [19] was 0.00421 µM (active); in [20], 0.000682 µM (active).

`CCNCC(=O)O[C@]1(CC)C(=O)OCc2c1cc1n(c2=O)Cc2cc3ccccc3nc2-1`: the GI50 in [1] is 0.0455 µM (active); in test [2], 7.4 µM (inactive); in [3], 0.598 µM (active); in test [4] it was 1.49 µM (inactive); in test [5], 0.264 µM (active); in test [6], < 0.0118 µM (active). Besides, the GI50 in [7] is 0.0693 µM (active); in test [8] it was 0.056 µM (active); in test [9] it was 0.115 µM (active); in test [10] it was 0.0195 µM (active); in test [11], 0.0465 µM (active); in test [12], 0.0559 µM (active). Also, the GI50 in test [13] is 0.811 µM (active); in [14], 2.25 µM (inactive); in [15], 0.0468 µM (active); in test [16], 0.267 µM (active); in test [17], 2.77 µM (inactive); in [18], 0.0142 µM (active). Moreover, the values for the GI50 in [19] and in test [20] were 0.585 µM (active) and 0.237 µM (active), respectively.
